Reference: patent US6254899A, “Plant extract compositions, method of preparation, and pharmaceutical compositions containing them” (Laboratoires Remilea, priority 1999, dated 2001)

Tests used:
[1] = Test of anti-inflammatory activity: carragheenin-induced podal edema in rats; assay type: in vivo, rat (Ico male and female, Sprague Dawley)
Method: 1. Test of Anti-inflammatory Activity
Podal edema induced by carragheenin is used to evaulate the anti-inflammatory activity of the products tested.
The products were tested on Ico male rats and female rats (Sprague Dawley) of approximately 250 g provided by the company IFFA-CREDO.
The products tested were suspended in the hydroxypropyl methyl cellulose (HPMC).
A volume of 5 ml per kg of body weight was administered to the animals by oral route according to the protocol detained in the table below.
Batch Salix Tanacetum Copper Quantity Volume
no. alba parthenium gluconate of excipient administered
Batch / 900 mg / 15.0 ml) 5 ml/kg
The control animals received either the placebo (T+), i.e. solely the HPMC, or indomethacin (T-) by oral route.
The treatment took place two hours before the experiment. One hour after oral administration of the product to be tested, all the animals received 0.2 ml of a 2% solution of carragheenin (Satia) in a 0.9% solution of sodium chloride at by injection in the right back paw (T0).
The podal volume of each rat was measured using a plethysmometer. The podal edema of each animal was measured at times T0, T0 +60 minutes, T0 +120 minutes, T0 +240 minutes.
The results were expressed in average percentages of inflammation relative to the control values (T^+) before the treatment and at each of the measuring times as well as in the percentage reduction of the edema compared to a control before the treatment and against each of the measuring times.

[2] = Test of analgesic activity: phenyl benzoquinone (PBQ) induced abdominal cramps in mice; assay type: in vivo, mice (male); conditions: aspirin 100 mg/kg
Method: 50 male mice of 20-24 g supplied by the company IFFA-CREDO (France) were divided into 5 batches. The products studied were administered: by oral route thirty minutes before injection of phenyl benzoquinone (PBQ): (PBQ 20 mg+alcohol 5 ml+water qsp 100 ml). by intraperitoneal route at the rate of 0.20 ml per mouse.
The products to be tested were suspended in the excipient HPMC (hydroxypropyl cellulose methyl).
The animals were treated as below: […]
4. Tanacetum parthenium 150 10 […]
Aspirin was used as the reference analgesic product.
PBQ induces abdominal cramps indicating the intensity of the pain. The number of cramps per mouse was measured 1 hr and 2 hrs after administration of the product tested (30 mn and 1 hr 30 minutes after injection of PBQ).
The results were expressed as the percentage: […]
Number of cramps of the control batch - number of cramps of
Number of cramps of the control batch

SMILES	% change of inflammation compared with the control (T+), 1 hour ([1]; 1 hour, "-" reduction, "+" increase in inflammation) [%]	% change of inflammation compared with the control (T+), 2 hours ([1]; 2 hours, "-" reduction, "+" increase in inflammation) [%]	% change of inflammation compared with the control (T+), 4 hours ([1]; 4 hours, "-" reduction, "+" increase in inflammation) [%]	% inflammation after 1 hour ([1]; oral, 5 ml/kg, 1 hour) [%]	% inflammation after 2 hours ([1]; oral, 5 ml/kg, 2 hours) [%]	% inflammation after 4 hours ([1]; oral, 5 ml/kg, 4 hours) [%]	Reduction of number of abdominal cramps, 1 hr ([2]; 60 mins after administration, Salix alba 150 mg/kg) [%]	Reduction of number of abdominal cramps, 2 hrs ([2]; 120 mins after administration, Salix alba or Tanacetum parthenium 150 mg/kg) [%]
COc1ccc2c(c1)c(CC(=O)O)c(C)n2C(=O)c1ccc(Cl)cc1 [Indomethacin]	-16.74	-36.7	-50.38	38.34	51.85	71.38	–	–
CC(=O)Oc1ccccc1C(=O)O [aspirin]	–	–	–	–	–	–	33	55
